Source: US9221834B2 (Merck Sharp & Dohme Corp., priority 2010, dated 2015)

target: T1, recombinant CETP (rCETP) (Homo sapiens, UniProt P11597); assay: RTA assay using recombinant CETP (2% RTA); format: biochemical; settings: RTA assay in 2% human serum; read-out: IC50
T1 sequence (P11597 18-493): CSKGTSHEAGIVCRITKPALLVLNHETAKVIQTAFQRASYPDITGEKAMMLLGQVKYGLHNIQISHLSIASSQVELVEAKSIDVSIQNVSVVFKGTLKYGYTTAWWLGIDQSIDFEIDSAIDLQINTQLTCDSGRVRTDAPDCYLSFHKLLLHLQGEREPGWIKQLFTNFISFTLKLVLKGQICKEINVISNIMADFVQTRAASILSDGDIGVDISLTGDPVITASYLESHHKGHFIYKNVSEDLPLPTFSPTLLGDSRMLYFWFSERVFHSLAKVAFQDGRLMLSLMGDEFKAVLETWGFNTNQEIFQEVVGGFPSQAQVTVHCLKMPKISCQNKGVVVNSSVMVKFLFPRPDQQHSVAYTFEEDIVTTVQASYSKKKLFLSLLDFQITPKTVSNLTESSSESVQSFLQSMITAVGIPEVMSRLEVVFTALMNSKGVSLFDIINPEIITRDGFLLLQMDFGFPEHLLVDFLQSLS
Outline: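 Compounds preincubated 1 h at 37 °C with assay cocktail (CETP buffer: 50 mM Tris pH 7.4, 100 mM NaCl, 1 mM EDTA; human HDL acceptor); transfer started with [3H]cholesteryl oleate- or [3H]triolein-labelled LDL, 60 min at 37 °C. LDL PEG-precipitated; supernatant counted by scintillation, blank-corrected; IC50 from 4-parameter sigmoidal fit of % inhibition vs DMSO control.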

Row | Structure (SMILES) | IC50 [nM]
1 | COC(=O)CCc1ccc(OC2CC2)c(-c2ccc(N3CCC3)nc2CN2C(=O)O[C@H](c3cc(C(F)(F)F)cc(C(F)(F)F)c3)[C@@H]2C)c1 [Example 213] | 14
2 | COC(=O)CCc1ccc(OC2CC2)c(-c2c(C)cc(N3CCC3)nc2CN2C(=O)O[C@H](c3cc(C(F)(F)F)cc(C(F)(F)F)c3)[C@@H]2C)c1 [Example 215] | 6
3 | COc1ccc([C@H]2CC[C@H](C(=O)O)CC2)cc1-c1ccc(N2CCC2)nc1CN1C(=O)O[C@H](c2cccc(C(F)(F)F)c2)[C@@H]1C [Example 219] | 44
4 | COc1ccc(C(C)(C)CC(=O)O)cc1-c1ccc(N2CCC2)nc1CN1C(=O)O[C@H](c2cccc(C(F)(F)F)c2)[C@@H]1C [Example 220] | 330
5 | COc1ccc(CC(C)(C)C(=O)O)cc1-c1ccc(N2CCC2)nc1CN1C(=O)O[C@H](c2cccc(C(F)(F)F)c2)[C@@H]1C [Example 221] | 145
6 | COc1ccc(CCC(=O)O)cc1-c1ccc(N2CCC2)nc1CN1C(=O)O[C@H](c2cccc(C)c2)[C@@H]1C [Example 223] | 289
7 | COc1ccc([C@H]2CC[C@H](C(=O)O)CC2)cc1-c1ccc(N2CCC2)nc1CN1C(=O)O[C@H](c2cc(C)cc(C)c2)[C@@H]1C [Example 224] | 14
8 | COc1ccc([C@H]2CC[C@H](C(=O)O)CC2)cc1-c1ccc(N2CCC2)nc1CN1C(=O)O[C@H](c2cccc(C)c2)[C@@H]1C [Example 225] | 66
9 | COc1ccc(C(C)(C)CC(=O)O)cc1-c1ccc(N2CCC2)nc1CN1C(=O)O[C@H](c2cc(C)cc(C)c2)[C@@H]1C [Example 226] | 110
10 | COc1ccc(CC(C)(C)C(=O)O)cc1-c1ccc(N2CCC2)nc1CN1C(=O)O[C@H](c2cc(C)cc(C)c2)[C@@H]1C [Example 227] | 65
11 | COc1ccc(CCC(=O)O)cc1-c1ccc(N2CCC2)nc1CN1C(=O)O[C@H](c2cc(C)cc(C)c2)[C@@H]1C [Example 228, 3-[3-(6-azetidin-1-yl-2-{[(4S,5R)-5-(3,5-dimethylphenyl)-4-methyl-2-oxo-1,3-oxazolidin-3-yl]methyl}pyridin-3-yl)-4-methoxyphenyl]propanoic acid] | 47
12 | COc1cc2c(cc1-c1ccc(N3CCC3)nc1CN1C(=O)O[C@H](c3cccc(C(F)(F)F)c3)[C@@H]1C)[C@H](CC(=O)O)CC2 [Example 229] | 161
13 | COc1cc2c(cc1-c1ccc(N3CCC3)nc1CN1C(=O)O[C@H](c3cc(C)cc(C)c3)[C@@H]1C)[C@H](CC(=O)O)CC2 [Example 230] | 95
14 | COc1cc2c(cc1-c1ccc(N3CCC3)nc1CN1C(=O)O[C@H](c3cccc(C)c3)[C@@H]1C)[C@H](CC(=O)O)CC2 [Example 231] | 403
15 | COc1ccc([C@@H]2C[C@H]2C(=O)O)cc1-c1ccc(N2CCC2)nc1CN1C(=O)O[C@H](c2cccc(C(F)(F)F)c2)[C@@H]1C [Example 232] | 54
16 | COc1ccc([C@@H]2C[C@H]2C(=O)O)cc1-c1ccc(N2CCC2)nc1CN1C(=O)O[C@H](c2cc(C)cc(C)c2)[C@@H]1C [Example 233] | 38
17 | COc1ccc([C@@H]2C[C@H]2C(=O)O)cc1-c1ccc(N2CCC2)nc1CN1C(=O)O[C@H](c2cccc(C)c2)[C@@H]1C [Example 234] | 267
18 | COc1ccc(-c2ccc(C(=O)O)cc2C)cc1-c1ccc(N2CCC2)nc1CN1C(=O)O[C@H](c2cccc(C(F)(F)F)c2)[C@@H]1C [Example 235] | 6
19 | COc1ccc(-c2ccc(C(=O)O)cc2C)cc1-c1ccc(N2CCC2)nc1CN1C(=O)O[C@H](c2cc(C)cc(C)c2)[C@@H]1C [Example 236] | 13
20 | COc1ccc(-c2ccc(C(=O)O)cc2C)cc1-c1ccc(N2CCC2)nc1CN1C(=O)O[C@H](c2cccc(C)c2)[C@@H]1C [Example 237] | 10

Row | Structure (SMILES) | IC50 [nM]
21 | COc1cc(F)c(-c2ccc(C(=O)O)cc2C)cc1-c1ccc(N2CCC2)nc1CN1C(=O)O[C@H](c2cc(C#N)cc(C(F)(F)F)c2)[C@@H]1C [Example 247] | 44
22 | C[C@H]1[C@@H](c2cc(C(F)(F)F)cc(C(F)(F)F)c2)OC(=O)N1Cc1nc(N2CCC2)ccc1-c1cc(CCC(=O)O)ccc1OC1CC1 [Example 248] | 19
23 | COc1ccc(CCC(N)=O)cc1-c1ccc(N2CCC2)nc1CN1C(=O)O[C@H](c2cc(C)cc(C)c2)[C@@H]1C [Example 249, 3-[3-(6-azetidin-1-yl-2-{[(4S,5R)-5-(3,5-dimethylphenyl)-4-methyl-2-oxo-1,3-oxazolidin-3-yl]methyl}pyridin-3-yl)-4-methoxyphenyl]propanamide] | 105
24 | COc1ccc([C@@H]2C[C@H]2C(N)=O)cc1-c1ccc(N2CCC2)nc1CN1C(=O)O[C@H](c2cc(C)cc(C)c2)[C@@H]1C [Example 250] | 54
25 | COc1ccc([C@H]2CC[C@H](C(N)=O)CC2)cc1-c1ccc(N2CCC2)nc1CN1C(=O)O[C@H](c2cccc(C(F)(F)F)c2)[C@@H]1C [Example 251] | 24
26 | COc1ccc([C@@H]2C[C@H]2C(N)=O)cc1-c1ccc(N2CCC2)nc1CN1C(=O)O[C@H](c2cccc(C(F)(F)F)c2)[C@@H]1C [Example 252] | 63
27 | COc1ccc([C@H]2CC[C@H](C(N)=O)CC2)cc1-c1ccc(N2CCC2)nc1CN1C(=O)O[C@H](c2cc(C)cc(C)c2)[C@@H]1C [Example 253, trans-4-[3-(6-azetidin-1-yl-2-{[(4S,5R)-5-(3,5-dimethylphenyl)-4-methyl-2-oxo-1,3-oxazolidin-3-yl]methyl}pyridin-3-yl)-4-methoxyphenyl]cyclohexanecarboxamide] | 23
28 | COc1ccc(CC(N)=O)cc1-c1ccc(N2CCC2)nc1CN1C(=O)O[C@H](c2cc(C(F)(F)F)cc(C(F)(F)F)c2)[C@@H]1C [Example 254, 2-{3-[6-azetidin-1-yl-2-({(4S,5R)-5-[3,5-bis(trifluoromethyl)phenyl]-4-methyl-2-oxo-1,3-oxazolidin-3-yl}methyl)pyridin-3-yl]-4-methoxyphenyl}acetamide] | 15
29 | COc1ccc([C@H]2CC[C@H](C#N)CC2)cc1-c1ccc(N2CCC2)nc1CN1C(=O)O[C@H](c2cc(C)cc(C)c2)[C@@H]1C [Example 255] | 395
30 | COc1ccc(CC#N)cc1-c1ccc(N2CCC2)nc1CN1C(=O)O[C@H](c2cc(C(F)(F)F)cc(C(F)(F)F)c2)[C@@H]1C [Example 256, {3-[6-azetidin-1-yl-2-({(4S,5R)-5-[3,5-bis(trifluoromethyl)phenyl]-4-methyl-2-oxo-1,3-oxazolidin-3-yl}methyl)pyridin-3-yl]-4-methoxyphenyl}acetonitrile] | 5
31 | COc1ccc(-c2ccc(O)c(C(C)=O)c2)cc1-c1ccc(N2CCC2)nc1CN1C(=O)O[C@H](c2cc(C(F)(F)F)cc(C(F)(F)F)c2)[C@@H]1C [Example 257, (4S,5R)-3-{[3-(3′-acetyl-4′-hydroxy-4-methoxybiphenyl-3-yl)-6-azetidin-1-ylpyridin-2-yl]methyl}-5-[3,5-bis(trifluoromethyl)phenyl]-4-methyl-1,3-oxazolidin-2-one] | 90
32 | COc1ccc(CO)cc1-c1ccc(N2CCC2)nc1CN1C(=O)O[C@H](c2cc(C(F)(F)F)cc(C(F)(F)F)c2)[C@@H]1C [Example 258] | 7
33 | COc1ccc(CCO)cc1-c1ccc(N2CCC2)nc1CN1C(=O)O[C@H](c2cc(C(F)(F)F)cc(C(F)(F)F)c2)[C@@H]1C [Example 259, (4S,5R)-3-({6-azetidin-1-yl-3-[5-(2-hydroxyethyl)-2-methoxyphenyl]pyridin-2-yl}methyl)-5-[3,5-bis(trifluoromethyl)phenyl]-4-methyl-1,3-oxazolidin-2-one] | 4
34 | C[C@H]1[C@@H](c2cc(C(F)(F)F)cc(C(F)(F)F)c2)OC(=O)N1Cc1nc(N2CCC2)ccc1-c1cc(CCCO)ccc1OC1CC1 [Example 260] | 12
35 | COCCCc1ccc(OC2CC2)c(-c2ccc(N3CCC3)nc2CN2C(=O)O[C@H](c3cc(C(F)(F)F)cc(C(F)(F)F)c3)[C@@H]2C)c1 [Example 261] | 42
36 | COc1ccc(CCCO)cc1-c1ccc(N2CCC2)nc1CN1C(=O)O[C@H](c2cc(C(F)(F)F)cc(C(F)(F)F)c2)[C@@H]1C [Example 264, (4S,5R)-3-({6-azetidin-1-yl-3-[5-(3-hydroxypropy)-2-methoxyphenyl]pyridin-2-yl}methyl)-5-[3,5-bis(trifluoromethyl)phenyl]-4-methyl-1,3-oxazolidin-2-one] | 2
37 | COc1ccc(Cc2nc[nH]n2)cc1-c1ccc(N2CCC2)nc1CN1C(=O)O[C@H](c2cc(C(F)(F)F)cc(C(F)(F)F)c2)[C@@H]1C [Example 265] | 23
38 | COc1ccc(Cc2nn[nH]n2)cc1-c1ccc(N2CCC2)nc1CN1C(=O)O[C@H](c2cc(C(F)(F)F)cc(C(F)(F)F)c2)[C@@H]1C [Example 266, (4S,5R)-3-({6-azetidin-1-yl-3-[2-methoxy-5-(2H-tetrazol-5-ylmethyl)phenyl]pyridin-2-yl}methyl)-5-[3,5-bis(trifluoromethyl)phenyl]-4-methyl-1,3-oxazolidin-2-one] | 79
39 | COc1ccc(Cc2ncc[nH]2)cc1-c1ccc(N2CCC2)nc1CN1C(=O)O[C@H](c2cc(C(F)(F)F)cc(C(F)(F)F)c2)[C@@H]1C [Example 267, (4S,5R)-3-({6-azetidin-1-yl-3-[5-(1H-imidazol-2-ylmethyl)-2-methoxyphenyl]pyridin-2-yl}methyl)-5-[3,5-bis(trifluoromethyl)phenyl]-4-methyl-1,3-oxazolidin-2-one] | 67
